From US20210278408A1, “METHODS OF TREATMENT OF CANCER WITH SUBSTITUTED PYRROLE AND PYRAZOLE COMPOUNDS AND DIAGNOSIS OF CANCERS SUSCEPTIBLE TO TREATMENT WITH SUBSTITUTED PYRROLE AND PYRAZOLE COMPOUNDS” (Bantam Pharmaceutical, LLC, priority 2018, published 2021)
Where two headings read alike, the source gives them in different places.

Tested on: 407 cancer cell lines
Assay: Cell viability of cancer cell lines (IC50), CellTiter-Glo Viability Assay, 96 h
Type: cell-based
Conditions: for IC50: read-out: Absolute IC50
Method: Viability was determined by using the 50% inhibitory concentration (IC50) as determined with the CellTiter-Glo® Viability Assay (Promega).
Experiments were initiated by first thawing and equilibrating the CellTiter-Glo® Buffer to room temperature. The lyophilized CellTiter-Glo® Substrate was also equilibrated to room temperature. The lyophilized substrate was reconstituted with the CellTiter-Glo® buffer to form the CellTiter-Glo® Reagent.
Cells were harvested during the logarithmic growth period, counted, and the cell concentration adjusted to 4.44×10^4 cells/mL using culture medium.
Cells were allowed to grow overnight and the following day, the TO reading was obtained by adding 10 μL culture medium to each well of Plate A. The plate was allowed to equilibrate at room temperature for thirty minutes, after which 50 μL CellTiter-Glo® reagent was added to each well. The contents were mixed for 5 min on an orbital shaker to induce cell lysis. Plates were incubated for 20 minutes to stabilize the luminescent signal and the TO luminescence recorded.
Test plate B was incubated for 96 h in the humidified incubator at 37° C. with 5% CO2.
Following the incubation, the plate was equilibrated at room temperature for thirty minutes. CellTiter-Glo® (50 μL) was added to each well of the plate and contents mixed for five minutes on an orbital shaker to induce cell lysis. The luminescent signal was allowed to stabilize at room temperature for 20 minutes and the luminescence recorded.
IC50 (EC50) was calculated using a dose-response curve, fitted using a nonlinear regression model with a sigmoidal dose response. Survival rate was calculated using the formula:
The Surviving rate (%)=(LumTest article−LumMedium control)/(LumNon-treated−LumMedium control)×100%.
Absolute IC50 (EC50) was calculated according to the dose-response curve generated by the statistical software (GraphPad Prism 5.0).

Cc1nn(-c2nc(-c3ccc(C(F)(F)F)cc3)c(SC(C)C)s2)c(C(=O)O)c1-c1cccc(F)c1 [Compound A197, 4-(3-fluorophenyl)-1-(5-(isopropylthio)-4-(4-(trifluoromethyl)phenyl)thiazol-2-yl)-3-methyl-1H-pyrazole-5-carboxylic acid]
IC50 (Homo sapiens, TT, 96 h, TT cells, 96 h): 2.07 µM
IC50 (Homo sapiens, Toledo, 96 h, Toledo cells, 96 h): 1.45 µM
IC50 (Homo sapiens, U2OS, 96 h, U-2 OS cells, 96 h): 16.8 µM
IC50 (Homo sapiens, U2932, 96 h, U-2932 cells, 96 h): 0.46 µM
IC50 (Homo sapiens, U-87 MG, 96 h, U-87 MG cells, 96 h): 24.9 µM
IC50 (Homo sapiens, U-251, 96 h, U251 cells, 96 h): 0.28 µM
IC50 (Homo sapiens, U-937, 96 h, U-937 cells, 96 h): 0.41 µM
IC50 (Homo sapiens, UACC-812, 96 h, UACC-812 cells, 96 h): > 30 µM
IC50 (Homo sapiens, UMUC3, 96 h, UM-UC-3 cells, 96 h): 0.93 µM
IC50 (Homo sapiens, UO-31, 96 h, UO.31 cells, 96 h): > 30 µM
IC50 (Homo sapiens, WM 266-4, 96 h, WM-266-4 cells, 96 h): > 30 µM
IC50 (Homo sapiens, WSU-NHL, 96 h, WSU-NHL cells, 96 h): 0.48 µM
IC50 (Homo sapiens, WSUDLCL2, 96 h, WSU-DLCL2 cells, 96 h): 0.68 µM
IC50 (Homo sapiens, Y79, 96 h, Y-79 cells, 96 h): > 30 µM
IC50 (Homo sapiens, Z-138, Z-138): 1.5 µM
IC50 (Homo sapiens, ZR-75-1, ZR-75-1): 7.81 µM
IC50 (Homo sapiens, ZR-75-30, 96 h): > 30 µM
% inhibition at top conc. (HuCCT1, 96 h): 51.19%
% inhibition at top conc. (Ishikawa, 96 h): 82.51%
IC50 (JAR): 0.67 µM
% inhibition at top conc. (JEG-3 cells, 96 h): 52.54%
IC50 (JHH1, 96 h, JHH-1 cells, 96 h): > 30 µM
IC50 (JHH7, 96 h, JHH-7 cells, 96 h): 0.66 µM
IC50 (JHH-4, 96 h, JHH-4 cells, 96 h): 1.5 µM
IC50 (JVM13, JVM-13): 0.39 µM
% inhibition at top conc. (KATO III, 96 h): 45.89%
IC50 (KPL4, KPL-4): 0.25 µM
IC50 (L-82, L-82): 3.78 µM
% inhibition at top conc. (LNCaP clone FGC, 96 h): 76.07%
IC50 (Li-7, Li-7): 0.85 µM
% inhibition at top conc. (MDA-MB-436, 96 h): 54.72%
% inhibition at top conc. (MKN1 cells, 96 h): 53.97%
% inhibition at top conc. (MKN45, 96 h): 14.51%
% inhibition at top conc. (MKN74 cells, 96 h): 52.90%
IC50 (MM.1R): 1.19 µM
IC50 (MOLM16, 96 h, MOLM-16 cells, 96 h): 0.35 µM
IC50 (MS751, 96 h, MS751 cells, 96 h): > 30 µM
IC50 (NAMALWA CSN/70): 0.49 µM
% inhibition at top conc. (NCI-H69 cells, 96 h): 21.37%
% inhibition at top conc. (NCI-H82, 96 h): 92.52%
% inhibition at top conc. (NCI-H146 cells, 96 h): 37.67%
% inhibition at top conc. (NCI-H209 cells, 96 h): 45.11%
% inhibition at top conc. (NCI-H292 cells, 96 h): 54.61%
IC50 (NCI-H322, 96 h, NCI-H322 cells, 96 h): 0.29 µM
% inhibition at top conc. (NCI-H358 cells, 96 h): 68.44%
% inhibition at top conc. (NCI-H446 cells, 96 h): 51.21%
% inhibition at top conc. (NCI-H460 cells, 96 h): 49.03%
% inhibition at top conc. (NCI-H520 cells, 96 h): 76.45%
% inhibition at top conc. (NCI-H526 cells, 96 h): 44.57%
% inhibition at top conc. (NCI-H727 cells, 96 h): 35.60%
IC50 (NCI-H820, 96 h, NCI-H820 cells, 96 h): 0.35 µM
% inhibition at top conc. (NCI-H820 cells, 96 h): 78.69%
% inhibition at top conc. (NCI-H1048 cells, 96 h): 66.49%
% inhibition at top conc. (NCI-H1155 cells, 96 h): 79.14%
% inhibition at top conc. (NCI-H1299 cells, 96 h): 83.01%
IC50 (NCI-H1435, NCI-H1435): 0.39 µM
IC50 (NCI-H1568, 96 h, NCI-H1568 cells, 96 h): 0.27 µM
% inhibition at top conc. (NCI-H1648 cells, 96 h): 57.33%
% inhibition at top conc. (NCI-H1651 cells, 96 h): 67.37%
IC50 (NCI-H1688, NCI-H1688): > 30 µM
% inhibition at top conc. (NCI-H1703 cells, 96 h): 73.10%
IC50 (NCI-H1781, 96 h, NCI-H1781 cells, 96 h): > 30 µM
% inhibition at top conc. (NCI-H1792 cells, 96 h): 68.85%
IC50 (NCI-H1915, 96 h, NCI-H1915 cells, 96 h): > 30 µM
% inhibition at top conc. (NCI-H1975 cells, 96 h): 25.02%
% inhibition at top conc. (NCI-H1993 cells, 96 h): 78.76%
% inhibition at top conc. (NCI-H2087 cells, 96 h): 50.14%
% inhibition at top conc. (NCI-H2170 cells, 96 h): 75.97%
% inhibition at top conc. (NCI-H2228 cells, 96 h): 54.12%
% inhibition at top conc. (NCI-N87, 96 h): 54.19%
IC50 (NK-92MI): 6.58 µM
IC50 (NOZ): 0.71 µM
% inhibition at top conc. (NUGC-3 cells, 96 h): 63.39%
% inhibition at top conc. (NUGC-4 cells, 96 h): 62.77%
IC50 (OCUG-1, OCUG-1): 1.25 µM
IC50 (OCUM1, 96 h, OCUM-1 cells, 96 h): > 30 µM
% inhibition at top conc. (OCUM-1 cells, 96 h): 19.71%
% inhibition at top conc. (OCUM-2D cells, 96 h): 65.33%
% inhibition at top conc. (OCUM-2M cells, 96 h): 66.13%
% inhibition at top conc. (OE19, 96 h): 53.21%
IC50 (OSC19, 96 h, OSC-19 cells, 96 h): > 30 µM
% inhibition at top conc. (OVCAR-3 cells, 96 h): 46.65%
% inhibition at top conc. (OVCAR-8 cells, 96 h): 75.04%
IC50 (OZ): > 30 µM
% inhibition at top conc. (PC-9 cells, 96 h): 52.79%
IC50 (PEER): 1.87 µM
IC50 (PL45, PL45): 1.19 µM
IC50 (RD-ES): > 30 µM
% inhibition at top conc. (RPMI-2650 cells, 96 h): 52.41%
% inhibition at top conc. (RT4 cells, 96 h): 49.68%
% inhibition at top conc. (SCC-4, 96 h): 26.22%
% inhibition at top conc. (SCH cells, 96 h): 53.08%
IC50 (SF763, SF-763): 0.76 µM
% inhibition at top conc. (SK-MEL-5, 96 h): 25.67%
% inhibition at top conc. (SK-MEL-28, 96 h): 13.20%
% inhibition at top conc. (SK-OV-3 cells, 96 h): 34.62%
IC50 (SNU620, 96 h, SNU-620 cells, 96 h): > 30 µM
IC50 (SNU668, 96 h, SNU-668 cells, 96 h): > 30 µM
% inhibition at top conc. (SNU-1 cells, 96 h): 74.67%
% inhibition at top conc. (SNU-5, 96 h): 54.08%
IC50 (SNU-81): > 30 µM
IC50 (SNU-216, 96 h, SNU-216 cells, 96 h): > 30 µM
IC50 (SNU-368): > 30 µM
IC50 (SNU-484, 96 h, SNU-484 cells, 96 h): > 30 µM
% inhibition at top conc. (SNU-484 cells, 96 h): 45.94%
IC50 (SNU-601, 96 h, SNU-601 cells, 96 h): 0.49 µM
% inhibition at top conc. (SNU-601 cells, 96 h): 67.28%
% inhibition at top conc. (SNU-638 cells, 96 h): 56.77%
% inhibition at top conc. (SNU-719 cells, 96 h): 32.64%
IC50 (SNU-739, SNU-739): 20.9 µM
% inhibition at top conc. (SNU-761 cells, 96 h): 59.03%
% inhibition at top conc. (SNU-2535 cells, 96 h): 46.87%
IC50 (SNU-C2A): 0.58 µM
IC50 (SW579, 96 h, SW579 cells, 96 h): > 30 µM
% inhibition at top conc. (SW684 cells, 96 h): 4.22%
% inhibition at top conc. (SW948 cells, 96 h): 46.17%
IC50 (SW1271, SW1271): > 30 µM
IC50 (U266B1): > 30 µM
% inhibition at top conc. (UACC-812 cells, 96 h): 20.05%
% inhibition at top conc. (YCC-1 cells, 96 h): 29.02%
% inhibition at top conc. (YCC-6 cells, 96 h): 56.86%
% inhibition at top conc. (YCC-10, 96 h): 38.86%
IC50 (YCC-11, 96 h, YCC-11 cells, 96 h): > 30 µM
% inhibition at top conc. (YCC-11 cells, 96 h): 48.65%
% inhibition at top conc. (ZR-75-30, 96 h): 10.01%
